In the experiment the target is recombinant human HPK1 (Homo sapiens (Human), UniProt Q92918). The experiment can be described thus: HPK1 kinase assay (ADP-Glo). Format: biochemical. Conditions: 25 μM ATP, MBP substrate. The method in brief:
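Activity was read as ADP formed, detected by ADP-Glo luminescence after the reaction of 5 ng recombinant human HPK1 with MBP and ATP (stocks 0.5 μg/μl and 25 μM) for 40 min at 30 °C. Buffer was Tris pH 7.5 with MgCl2, BSA and DTT, with compound in 0.5% DMSO. IC50 came from inhibition curves.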
Background: ADP-Glo first removes unused ATP, then detects ADP through luciferase.
Chain of recombinant human HPK1 (Q92918 whole entry): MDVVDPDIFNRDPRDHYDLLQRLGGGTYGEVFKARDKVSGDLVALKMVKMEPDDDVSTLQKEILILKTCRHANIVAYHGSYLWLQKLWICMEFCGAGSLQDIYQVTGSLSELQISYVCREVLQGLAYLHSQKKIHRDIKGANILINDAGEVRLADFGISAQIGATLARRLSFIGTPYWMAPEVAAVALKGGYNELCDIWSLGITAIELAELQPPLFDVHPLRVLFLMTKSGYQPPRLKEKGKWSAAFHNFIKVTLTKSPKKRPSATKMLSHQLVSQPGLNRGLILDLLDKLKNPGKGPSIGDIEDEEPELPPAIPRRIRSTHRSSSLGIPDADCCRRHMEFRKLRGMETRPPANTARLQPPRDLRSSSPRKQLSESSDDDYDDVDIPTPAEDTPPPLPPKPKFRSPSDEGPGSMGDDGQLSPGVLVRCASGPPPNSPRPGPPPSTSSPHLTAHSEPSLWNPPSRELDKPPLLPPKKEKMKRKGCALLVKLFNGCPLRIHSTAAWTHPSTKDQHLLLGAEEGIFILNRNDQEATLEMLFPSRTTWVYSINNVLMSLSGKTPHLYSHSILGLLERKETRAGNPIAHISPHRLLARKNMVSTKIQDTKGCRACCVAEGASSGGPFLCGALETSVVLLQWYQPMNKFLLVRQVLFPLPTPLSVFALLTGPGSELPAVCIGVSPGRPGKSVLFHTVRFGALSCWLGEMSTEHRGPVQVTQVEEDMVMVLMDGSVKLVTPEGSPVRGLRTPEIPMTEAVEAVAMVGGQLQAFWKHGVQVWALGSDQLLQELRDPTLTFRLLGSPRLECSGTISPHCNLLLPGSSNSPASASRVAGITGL
As to `Cc1c(F)c(OCCOC(N)=O)c2[nH]ncc2c1-c1ccn2nc(NC(=O)[C@@H]3C[C@@H]3F)cc2c1` [Example 535, 2-((6-fluoro-4-(2-((1S,2S)-2-fluorocyclopropane-1-carboxamido)pyrazolo[1,5-a]pyridin-5-yl)-5-methyl-1H-indazol-7-yl)oxy)ethyl carbamate], the half-maximal inhibitory concentration (IC50) – broadly, the concentration needed to halve the response being measured – was below 100 nM.

`O=C(Nc1cc2cc(-c3c(Cl)c(F)c(OCC4CCCO4)c4[nH]ncc34)ccn2n1)[C@@H]1C[C@@H]1F` (stereo partly drawn) [Example 507, (1S,2S)-N-(5-(5-chloro-6-fluoro-7-((tetrahydrofuran-2-yl)methoxy)-1H-indazol-4-yl)pyrazolo[1,5-a]pyridin-2-yl)-2-fluorocyclopropane-1-carboxamide]: the IC50 was below 100 nM.

As to `CN(C)c1c(F)c(C(F)(F)F)c(-c2ccc3nc(NC(=O)[C@@H]4C[C@@H]4F)sc3n2)c2cn[nH]c12` [Example 207, (1S,2S)-N-(5-(7-(dimethylamino)-6-fluoro-5-(trifluoromethyl)-1H-indazol-4-yl)thiazolo[5,4-b]pyridin-2-yl)-2-fluorocyclopropane-1-carboxamide], the IC50 was below 100 nM.

`C#Cc1ccc2[nH]ncc2c1-c1ccc2nc(NC(=O)[C@@H]3C[C@@H]3F)sc2c1` [Example 39, (1S,2S)-N-(6-(5-ethynyl-1H-indazol-4-yl)benzo[d]thiazol-2-yl)-2-fluorocyclopropane-1-carboxamide]: the IC50 is 101 to 500 nM.

For the compound `CN(C)C(=O)CNc1c(F)c(Cl)c(-c2ccc3nc(NC(=O)[C@@H]4C[C@@H]4F)cn3c2)c2cn[nH]c12` [Example 397, (1S,2S)-N-(6-(5-chloro-7-((2-(dimethylamino)-2-oxoethyl)amino)-6-fluoro-1H-indazol-4-yl)imidazo[1,2-a]pyridin-2-yl)-2-fluorocyclopropane-1-carboxamide], the IC50 was below 100 nM.

Turning to `CN(C)c1ccc(-c2ccn3nc(NC(=O)[C@@H]4C[C@@H]4F)cc3c2)c2cn[nH]c12` [Example 595, (1S,2S)-N-(5-(7-(dimethylamino)-1H-indazol-4-yl)pyrazolo[1,5-a]pyridin-2-yl)-2-fluorocyclopropane-1-carboxamide], the IC50 lay in the range of 101 to 500 nM.

Consider `CNC1CCC(N(C)c2c(F)c(Cl)c(-c3ccn4nc(NC(=O)[C@@H]5C[C@@H]5F)cc4c3)c3cn[nH]c23)CC1` (stereo partly drawn) [Example 504, (1S,2S)-N-(5-(5-chloro-6-fluoro-7-(methyl((1R,4R)-4-(methylamino)cyclohexyl)amino)-1H-indazol-4-yl)pyrazolo[1,5-a]pyridin-2-yl)-2-fluorocyclopropane-1-carboxamide], for which the IC50 was below 100 nM.

As to `Cc1c(F)c(F)c2[nH]ncc2c1-c1ccc2nc(NC(=O)[C@@H]3C[C@@H]3F)cn2c1` [Example 262, (1S,2S)-N-(6-(6,7-difluoro-5-methyl-1H-indazol-4-yl)imidazo[1,2-a]pyridin-2-yl)-2-fluorocyclopropane-1-carboxamide], the IC50 was below 100 nM.

Take `Cc1ccc2[nH]ncc2c1-c1ccc2nc(NC(=O)C3CC3CO)cn2c1` (centres unmarked) [Example 278, 2-(hydroxymethyl)-N-(6-(5-methyl-1H-indazol-4-yl)imidazo[1,2-a]pyridin-2-yl)cyclopropane-1-carboxamide]: the half-inhibitory concentration (IC50) was above 1000 nM.

`C=Cc1c(F)cc2[nH]ncc2c1-c1ccn2nc(NC(=O)[C@@H]3C[C@@H]3F)cc2c1` [Example 447, (1S,2S)-2-fluoro-N-(5-(6-fluoro-5-vinyl-1H-indazol-4-yl)pyrazolo[1,5-a]pyridin-2-yl)cyclopropane-1-carboxamide]: the IC50 was below 100 nM.

`O=C(Nc1cn2cc(-c3c(Cl)c(F)c(SCCO)c4[nH]ncc34)ccc2n1)[C@@H]1C[C@@H]1F` [Example 290, (1S,2S)-N-(6-(5-chloro-6-fluoro-7-((2-hydroxyethyl)thio)-1H-indazol-4-yl)imidazo[1,2-a]pyridin-2-yl)-2-fluorocyclopropane-1-carboxamide]: the IC50 is below 100 nM.

For the compound `Cc1ccc2[nH]ncc2c1-c1ccc2nc(NC(=O)[C@@H]3C[C@@H]3F)cn2c1` [Example 221, (1S,2S)-2-fluoro-N-(6-(5-methyl-1H-indazol-4-yl)imidazo[1,2-a]pyridin-2-yl)cyclopropane-1-carboxamide], the IC50 was in the range of 101 to 500 nM.

Regarding `CNC(=O)C(C)c1c(F)c(Cl)c(-c2ccc3nc(NC(=O)[C@@H]4C[C@@H]4F)cn3c2)c2cn[nH]c12` (stereo partly drawn) [Example 433, (1S,2S)-N-(6-(5-chloro-6-fluoro-7-(1-(methylamino)-1-oxopropan-2-yl)-1H-indazol-4-yl)imidazo[1,2-a]pyridin-2-yl)-2-fluorocyclopropane-1-carboxamide], the IC50 was below 100 nM.

Take `O=C(Nc1cn2cc(-c3c(Cl)c(F)c(C4CCCC4O)c4[nH]ncc34)ccc2n1)[C@@H]1C[C@@H]1F` (stereo partly drawn) [Example 410, (1S,2S)-N-(6-(5-chloro-6-fluoro-7-(2-hydroxycyclopentyl)-1H-indazol-4-yl)imidazo[1,2-a]pyridin-2-yl)-2-fluorocyclopropane-1-carboxamide]: the IC50 is below 100 nM.

As to `CN(CCN)c1c(F)c(Cl)c(-c2ccc3nc(NC(=O)[C@@H]4C[C@@H]4F)sc3c2)c2cn[nH]c12` [Example 82, (1S,2S)-N-(6-(7-((2-aminoethyl)(methyl)amino)-5-chloro-6-fluoro-1H-indazol-4-yl)benzo[d]thiazol-2-yl)-2-fluorocyclopropane-1-carboxamide], the concentration for half-maximal inhibition (IC50) was below 100 nM.

For the compound `CSc1ccc(-c2ccc3nc(NC(=O)[C@@H]4C[C@@H]4F)cn3c2)c2cn[nH]c12` [Example 340, (1S,2S)-2-fluoro-N-(6-(7-(methylthio)-1H-indazol-4-yl)imidazo[1,2-a]pyridin-2-yl)cyclopropane-1-carboxamide], the IC50 lay in the range of 101 to 500 nM.

With `C=Cc1c(F)c(C)c(-c2ccc3nc(NC(=O)[C@@H]4C[C@@H]4F)sc3c2)c2cn[nH]c12` [Example 62, (1S,2S)-2-fluoro-N-(6-(6-fluoro-5-methyl-7-vinyl-1H-indazol-4-yl)benzo[d]thiazol-2-yl)cyclopropane-1-carboxamide], the IC50 is 101 to 500 nM.

Take `CN(C)c1c(F)cc(-c2ccc3nc(NC(=O)[C@@H]4C[C@@H]4F)sc3n2)c2cn[nH]c12` [Example 214, (1S,2S)-N-(5-(7-(dimethylamino)-6-fluoro-1H-indazol-4-yl)thiazolo[5,4-b]pyridin-2-yl)-2-fluorocyclopropane-1-carboxamide]: the IC50 was above 1000 nM.

In the case of `Cc1ccc2[nH]ncc2c1-c1ccc2nc(NC(=O)C3CC(F)C3)sc2c1` [Example 6, (1S,3S)-3-fluoro-N-(6-(5-methyl-1H-indazol-4-yl)benzo[d]thiazol-2-yl)cyclobutane-1-carboxamide], the 50% inhibitory concentration (IC50) fell in the range of 101 to 500 nM.

`CN(C)c1c(F)c(Cl)c(-c2ccn3nc(NC(=O)NC4CC4)cc3c2)c2cn[nH]c12` [Example 647, 1-(5-(5-chloro-7-(dimethylamino)-6-fluoro-1H-indazol-4-yl)pyrazolo[1,5-a]pyridin-2-yl)-3-cyclopropylurea]: the IC50 is below 100 nM.

With `CC(C)(O)c1c(F)c(Cl)c(-c2ccc3nc(NC(=O)[C@@H]4C[C@@H]4F)cn3c2)c2cn[nH]c12` [Example 389, (1S,2S)-N-(6-(5-chloro-6-fluoro-7-(2-hydroxypropan-2-yl)-1H-indazol-4-yl)imidazo[1,2-a]pyridin-2-yl)-2-fluorocyclopropane-1-carboxamide], the IC50 was below 100 nM.

With `CCC(=O)NC(C)c1c(F)c(Cl)c(-c2ccc3nc(NC(=O)[C@@H]4C[C@@H]4F)cn3c2)c2cn[nH]c12` (stereo partly drawn) [Example 424, (1S,2S)-N-(6-(5-chloro-6-fluoro-7-(1-propionamidoethyl)-1H-indazol-4-yl)imidazo[1,2-a]pyridin-2-yl)-2-fluorocyclopropane-1-carboxamide], the IC50 was below 100 nM.

For the compound `CNc1ccc2[nH]ncc2c1-c1ccc2nc(NC(=O)C3CC3)cn2c1` [Example 229, N-(6-(5-(methylamino)-1H-indazol-4-yl)imidazo[1,2-a]pyridin-2-yl)cyclopropanecarboxamide], the IC50 was below 100 nM.

Consider `O=C(Nc1nc2ccc(-c3c(Cl)c(F)c(N4CCNCC4)c4[nH]ncc34)cc2s1)[C@@H]1C[C@@H]1F` [Example 76, (1S,2S)-N-(6-(5-chloro-6-fluoro-7-(piperazin-1-yl)-1H-indazol-4-yl)benzo[d]thiazol-2-yl)-2-fluorocyclopropane-1-carboxamide], for which the IC50 lay within 101 to 500 nM.

With `O=C(O)NCC1CN(c2c(F)c(Cl)c(-c3ccc4nc(NC(=O)[C@@H]5C[C@@H]5F)sc4c3)c3cn[nH]c23)C1` [Example 90, ((1-(5-chloro-6-fluoro-4-(2-((1S,2S)-2-fluorocyclopropane-1-carboxamido)benzo[d]thiazol-6-yl)-1H-indazol-7-yl)azetidin-3-yl)methyl)carbamic acid], the IC50 is below 100 nM.

Turning to `CN(C)c1c(F)cc2[nH]ncc2c1-c1ccn2nc(NC(=O)[C@@H]3C[C@@H]3F)cc2c1` [Example 454, (1S,2S)-N-(5-(5-(dimethylamino)-6-fluoro-1H-indazol-4-yl)pyrazolo[1,5-a]pyridin-2-yl)-2-fluorocyclopropane-1-carboxamide], the IC50 was 101 to 500 nM.

Consider `CS(=O)(=O)c1c(F)c(Cl)c(-c2ccc3nc(NC(=O)[C@@H]4C[C@@H]4F)sc3n2)c2cn[nH]c12` [Example 185, (1S,2S)-N-(5-(5-chloro-6-fluoro-7-(methylsulfonyl)-1H-indazol-4-yl)thiazolo[5,4-b]pyridin-2-yl)-2-fluorocyclopropane-1-carboxamide], for which the IC50 fell in the range of 101 to 500 nM.

Take `O=C(Nc1nc2ccc(-c3c(Cl)ccc4[nH]ncc34)cc2s1)[C@@H]1C[C@@H]1F` [Example 30, (1S,2S)-N-(6-(5-chloro-1H-indazol-4-yl)benzo[d]thiazol-2-yl)-2-fluorocyclopropane-1-carboxamide]: the IC50 lay within 101 to 500 nM.

For the compound `CC(=O)c1c(F)c(C)c(-c2ccn3nc(NC(=O)[C@@H]4C[C@@H]4F)cc3c2)c2cn[nH]c12` [Example 566, (1S,2S)-N-(5-(7-acetyl-6-fluoro-5-methyl-1H-indazol-4-yl)pyrazolo[1,5-a]pyridin-2-yl)-2-fluorocyclopropane-1-carboxamide], the IC50 is 101 to 500 nM.

The values are drawn from patent US11649255B2, “Indazoles as hematopoietic progenitor kinase 1 (HPK1) inhibitors and methods using same” (1st Biotherapeutics, Inc., priority 2020, dated 2023).
